Read-outs that look alike come from different tables or passages of the source. Where a SMILES comes first, the peptide text is derived from it. Bridges are numbered along the chain shown (N, C = ends). Roman numbers before positions name the chains, in order. Where no end group is shown, it is not given here.

These results are taken from PMC4769088, “Antifungal Activity and Action Mechanism of Histatin 5-Halocidin Hybrid Peptides against Candida ssp” (PLoS ONE, 2016).

For data set [1], the system named is C. guilliermondi CCARM 14019. The format is cell-based. The protocol:
(§1) To determine the candidacidal activity of the peptides, we used Candida strains obtained from the Culture collection of antimicrobial resistant microbes at Seoul Women’s University in Korea. These included three Candida albicans (CCARM 14020, 14021, 14022), Candida guillermondi and Candida tropicalis. In addition, Candida albicans SC5413 was kindly provided by Dr Jeong-Yoon Kim at the Department of Microbiology & Molecular Biology, Chungnam University, Korea. Yeast were cultured overnight at 30°C in 10 ml of yeast extract-peptone-dextrose (YPD) broth (Qbiogene), then diluted in 10 ml of YPD broth to OD600 = 0.2 and grown for an additional 4 h with shaking at 30°C until OD600 = 0.8 in order to obtain mid-log phase cultures. The peptides (Hst 5, P113, HHP1, HHP2, PH1, PH2, di-PH1, di-PH2, WP1, di-WP2, di-15Hc and di-18Hc) in this study were synthesized by using standard solid-phase synthesis protocols and were purified by reversed-phase high-performance liquid chromatography at Anygen Inc. (Korea). FITC-labeled peptides (F-Hst5, F-P113, F-HHP1, F-di-PH2, F-di-WP2 and F-di-18Hc) were also synthesized by 6-aminohexnoic acid linker at Anygen (Korea) for confocal experiments.
(§2) The candidacidal activities of the peptides were tested by using standard microdilution plate assays, radial diffusion assays and broth dilution assay slightly modified from the procedure recommended by the National Committee for Clinical Laboratory Standards. For the candidacidal assays, C. albicans cells were grown in YPD medium and washed twice with 10 mM sodium phosphate buffer (NaPB; Na2HPO4, NaH2PO4, pH 7.4). The cells (1 x 10^6) were then mixed with different concentrations of peptides and incubated at 30°C with constant shaking for 60 min. For energy depletion experiments, cells were pre-incubated with 10 mM NaPB containing 5 mM NaN3 at 30°C for 60 min before the addition of peptides. The cell suspensions were diluted in 10 mM NaPB and aliquots of 500 cells were spread onto YPD agar plates then incubated for 24 h at 30°C to visualize the surviving colonies. Cell survival was expressed as a percentage of that for the control, and the loss of viability was calculated as [1 x (number of colonies from peptide-treated cells/number of colonies from control cells)] x 100. Candidacidal assays were performed in triplicate. For the radial diffusion assay, C. albicans cells were grown in YPD medium overnight and washed twice with 10 mM NaPB. Washed yeast-phase C. albicans cells (1 x 10^6 CFU) were trapped in thin underlay gels containing 9 mM sodium phosphate, 1 mM sodium citrate buffer, 1% (wt/vol) agarose (A6013; Sigma), and 0.3 mg of Sabouraud dextrose broth (Difco)/ml. After incubation at 37°C for 3 h, a 10 ml overlay gel of 1% agarose and 6% Sabouraud dextrose broth was poured on the underlay gel and then the plates were incubated overnight at 37°C. The clear-zone diameters were measured to the nearest 0.1 mm and graphed against the peptide concentration. Zone diameters were expressed in units (0.1 mm = 1 unit). For the broth dilution assay, the Candida strains were cultured in LYM broth for 18 h at 30°C. The numbers of yeasts were counted using a hemocytometer. Stock peptide solutions were prepared to a concentration of 320 μg/ml in distilled water, and were then serially diluted twofold, to 5 μg/ml. 100 μl aliquots of the diluted culture media containing candida cells (1 x 10^3) were dispensed into the wells of 96-well polypropylene microtiter plates (Costar 3879, Corning, NY), to which peptide solution (11 μl) was then added. In the experiments conducted to assess the candidacidal activity of peptides in the presence of salt, we used LYM supplemented with 150 mM NaCl for the culture medium, which was mixed with the peptide solution. The antifungal activities were evaluated after 24 h of incubation at 30°C by the observation of visible turbidity the wells. […]

For data set [2], the system named is C. guilliermondi CCARM 14018. It counts as cell-based. As for the experimental part: as §1, §2
Data set [3] in a line: CD spectra, secondary structure analysis. The format is physicochemical. The settings on record: 200 μg/ml peptide. The protocol: Circular dichroism (CD) spectra of the six peptides (Hst5, P113, HHP1, di-PH2, di-WP2 and di-18Hc) were measured with a J-715 spectropolarimeter (Jasco, Tokyo, Japan). Two hundred micrograms of each peptide was resuspended in 1 ml of 10 mM NaPB (pH 7.0) (i) without other additives, (ii) with 10% laminarin (LAM) or (iii) with 50% trifluoroethanol (TFE) (a known helix-inducing solvent). The spectra were measured at room temperature in a 1-mm-path-length quartz cell. The scanning speed was 10 nm/min (180 to 260 nm), and each spectrum was the average of five scans.
Fig 3 CD spectra of Hst5, P113, di-18Hc and hybrid peptides. This study was performed with one concentration (200 μg/ml) of each peptide in various buffers: 10 mM sodium phosphate buffer (Red line), 50% TFE in phosphate buffer (green line) and 20 mg of laminarin in phosphate buffer.

In the next data set the test system is C. tropicalis. In words: Broth dilution assay (MIC). It counts as cell-based, Candida tropicalis. As for the experimental part: as §1
The candidacidal activities of the peptides were tested by using standard microdilution plate assays, radial diffusion assays and broth dilution assay slightly modified from the procedure recommended by the National Committee for Clinical Laboratory Standards. For the candidacidal assays, C. albicans cells were grown in YPD medium and washed twice with 10 mM sodium phosphate buffer (NaPB; Na2HPO4, NaH2PO4, pH 7.4). The cells (1 x 10^6) were then mixed with different concentrations of peptides and incubated at 30°C with constant shaking for 60 min. For energy depletion experiments, cells were pre-incubated with 10 mM NaPB containing 5 mM NaN3 at 30°C for 60 min before the addition of peptides. The cell suspensions were diluted in 10 mM NaPB and aliquots of 500 cells were spread onto YPD agar plates then incubated for 24 h at 30°C to visualize the surviving colonies. Cell survival was expressed as a percentage of that for the control, and the loss of viability was calculated as [1 x (number of colonies from peptide-treated cells/number of colonies from control cells)] x 100. Candidacidal assays were performed in triplicate. For the radial diffusion assay, C. albicans cells were grown in YPD medium overnight and washed twice with 10 mM NaPB. […] The clear-zone diameters were measured to the nearest 0.1 mm and graphed against the peptide concentration. […] The numbers of yeasts were counted using a hemocytometer. […] The antifungal activities were evaluated after 24 h of incubation at 30°C by the observation of visible turbidity the wells. […]

Where [4] appears, read: NaCl 150 mM, LYM supplemented with 150 mM NaCl, 24 h at 30°C.
The mark [5] stands for this setting: solvent 10mM NaPB (pH 7.0), room temperature, average of five scans.

In the case of `C[C@H](NC(=O)[C@H](Cc1c[nH]cn1)NC(=O)[C@H](CO)NC(=O)[C@@H](N)CC(=O)O)C(=O)N[C@@H](CCCCN)C(=O)N[C@@H](CCCNC(=N)N)C(=O)N[C@@H](Cc1c[nH]cn1)C(=O)N[C@@H](Cc1c[nH]cn1)C(=O)NCC(=O)N[C@@H](Cc1ccc(O)cc1)C(=O)N[C@@H](CCCCN)C(=O)N[C@@H](CCCNC(=N)N)C(=O)N[C@@H](CCCCN)C(=O)N[C@@H](Cc1ccccc1)C(=O)N[C@@H](Cc1c[nH]cn1)C(=O)N[C@@H](CCC(=O)O)C(=O)N[C@@H](CCCCN)C(=O)N[C@@H](Cc1c[nH]cn1)C(=O)N[C@@H](Cc1c[nH]cn1)C(=O)N[C@@H](CO)C(=O)N[C@@H](Cc1c[nH]cn1)C(=O)N[C@@H](CCCNC(=N)N)C(=O)NCC(=O)N[C@@H](Cc1ccc(O)cc1)C(=O)O` [Hst 5, Histatin 5], the MICs in data set [1] (CCARM 14019, 24 h) is 2 to 4 µg/mL; in data set [1] (setting [4]) it was 32< μg/ml; in data set [2] (CCARM 14018, 24 h), 1 to 2 µg/mL; in data set [2] (setting [4]), 32< μg/ml. The “Secondary structure (%) Beta” value in data set [3] (solvent 10mM NaPB (pH 7.0)) was found to be 19.3%; in data set [3] (solvent 50% TFE in 10 mM NaPB), 7.3%. For the same molecule, the entries for the “Secondary structure (%) Random” value in data set [3] (solvent 10mM NaPB (pH 7.0)) and in data set [3] (solvent 50% TFE in 10 mM NaPB) were 74.5% and 0.0%, respectively. Also, the “Secondary structure (%) Turn” value in data set [3] (solvent 10mM NaPB (pH 7.0)) amounted to 6.2%; in data set [3] (solvent 50% TFE in 10 mM NaPB), 16.4%. Besides, the “Secondary structure (%) Helix” value turned out to be 0% in data set [3] (setting [5]) and 76.2% in data set [3] (solvent 50% TFE in 10 mM NaPB).
As to `CC(C)C[C@H](NC(=O)CNC(=O)[C@H](Cc1c[nH]cn1)NC(=O)[C@H](Cc1c[nH]cn1)NC(=O)[C@H](CC(C)C)NC(=O)[C@H](CC(C)C)NC(=O)[C@H](C)NC(=O)[C@H](CC(N)=O)NC(=O)[C@H](CC(C)C)NC(=O)[C@@H](N)Cc1c[nH]c2ccccc12)C(=O)N[C@@H](CC(N)=O)C(=O)N[C@@H](CSSC[C@H](NC(=O)[C@H](CC(N)=O)NC(=O)[C@H](CC(C)C)NC(=O)CNC(=O)[C@H](Cc1c[nH]cn1)NC(=O)[C@H](Cc1c[nH]cn1)NC(=O)[C@H](CC(C)C)NC(=O)[C@H](CC(C)C)NC(=O)[C@H](C)NC(=O)[C@H](CC(N)=O)NC(=O)[C@H](CC(C)C)NC(=O)[C@@H](N)Cc1c[nH]c2ccccc12)C(=O)N[C@@H](C)C(=O)N[C@@H](CCCCN)C(=O)NCC(=O)N[C@H](C(=O)N[C@@H](CC(C)C)C(=O)N[C@@H](C)C(N)=O)C(C)C)C(=O)N[C@@H](C)C(=O)N[C@@H](CCCCN)C(=O)NCC(=O)N[C@H](C(=O)N[C@@H](CC(C)C)C(=O)N[C@@H](C)C(N)=O)C(C)C` [di-18Hc, reference compound] (I: H-WLNALLHHGLNCAKGVLA-NH2 / II: H-WLNALLHHGLNCAKGVLA-NH2; disulfide I:12-II:12 (inferred); N-terminus assumed), the MICs in data set [1] (CCARM 14019, 24 h) was in the range of 4 to 8 µg/mL. Further, in data set [3] (solvent 10mM NaPB (pH 7.0)), the “Secondary structure (%) Beta” value is given as 29.2%, the “Secondary structure (%) Random” value worked out at 61.5% and the “Secondary structure (%) Turn” value came out at 5.5%. Also, the “Secondary structure (%) Helix” value in data set [3] (setting [5]) came out at 3.8%. In data set [3] (solvent 50% TFE in 10 mM NaPB), the “Secondary structure (%) Beta” value amounted to 10.4%, the “Secondary structure (%) Helix” value amounted to 47.0%, the “Secondary structure (%) Random” value was determined as 28.4% and the “Secondary structure (%) Turn” value was determined as 14.2%. Also, the “killing activities against C. tropicalis in 150 mM NaCl salt” value with C. tropicalis is recorded as “retained”.
Turning to `CC(C)C[C@H](NC(=O)CNC(=O)[C@H](Cc1c[nH]cn1)NC(=O)[C@H](Cc1c[nH]cn1)NC(=O)[C@H](CCCNC(=N)N)NC(=O)[C@H](CCCCN)NC(=O)[C@H](C)N)C(=O)N[C@@H](CC(N)=O)C(=O)N[C@@H](CSSC[C@H](NC(=O)[C@H](CC(N)=O)NC(=O)[C@H](CC(C)C)NC(=O)CNC(=O)[C@H](Cc1c[nH]cn1)NC(=O)[C@H](Cc1c[nH]cn1)NC(=O)[C@H](CCCNC(=N)N)NC(=O)[C@H](CCCCN)NC(=O)[C@H](C)N)C(=O)N[C@@H](C)C(=O)N[C@@H](CCCCN)C(=O)N[C@@H](Cc1ccccc1)C(=O)N[C@@H](Cc1c[nH]cn1)C(N)=O)C(=O)N[C@@H](C)C(=O)N[C@@H](CCCCN)C(=O)N[C@@H](Cc1ccccc1)C(=O)N[C@@H](Cc1c[nH]cn1)C(N)=O` [di-PH2] (I: H-AKRHHGLNCAKFH-NH2 / II: H-AKRHHGLNCAKFH-NH2; disulfide I:9-II:9 (inferred); N-terminus assumed), in data set [2] (setting [4]), the MICs is given as 32< μg/ml. Further, in data set [3] (solvent 10mM NaPB (pH 7.0)), the “Secondary structure (%) Beta” value is 29.2%, the “Secondary structure (%) Random” value was determined as 70.8% and the “Secondary structure (%) Turn” value came to 0.0%. In addition, in data set [3] (setting [5]), the “Secondary structure (%) Helix” value was determined as 0.0%. Further, in data set [3] (solvent 50% TFE in 10 mM NaPB), the “Secondary structure (%) Beta” value was 32.9%, the “Secondary structure (%) Helix” value was 10.1%, the “Secondary structure (%) Random” value was found to be 51.8% and the “Secondary structure (%) Turn” value was 5.2%. Further, the “killing activities against C. tropicalis in 150 mM NaCl salt” value with C. tropicalis is “retained”. The “increase in MIC against C. tropicalis at 150 mM salt” value in the data set with C. tropicalis (150 mM NaCl versus no salt) is 2 fold.
AKRHHGYKRKFH-NH2 [P113]: the MICs was 0.5 to 1 µg/mL in data set [1] (CCARM 14019, 24 h); 32< μg/ml in data set [1] (setting [4]); 0.5 to 1 µg/mL in data set [2] (CCARM 14018, 24 h); 32< μg/ml in data set [2] (setting [4]). Besides, the “Secondary structure (%) Beta” value is listed as 0.0% in data set [3] (solvent 10mM NaPB (pH 7.0)) and 34.8% in data set [3] (solvent 50% TFE in 10 mM NaPB). In addition, the “Secondary structure (%) Random” value in data set [3] (solvent 10mM NaPB (pH 7.0)) worked out at 95.3%; in data set [3] (solvent 50% TFE in 10 mM NaPB) it was 60.8%. Also, the “Secondary structure (%) Turn” value in data set [3] (solvent 10mM NaPB (pH 7.0)) came out at 4.7%; in data set [3] (solvent 50% TFE in 10 mM NaPB) it was 0.0%. For the same molecule, the figures for the “Secondary structure (%) Helix” value in data set [3] (setting [5]) and in data set [3] (solvent 50% TFE in 10 mM NaPB) were 0.0% and 4.4%, respectively.
